In article PMC10906223 (JCI Insight, 2024):
Several values for one entry are separate records, joined by “and”; a condition that tells them apart may be missing. Equal values may be shown once. Entries after “also recorded” stand apart in the source; their conditions may differ.

Experiments:
diabetic NOD mice = assay: Blood glucose in diabetic NOD mice, once-daily oral WCDD301 in SAIB-Agar; format: in vivo, mouse; set-up: Blood glucose: unit: mg/dL; settings: for Blood glucose: oral 7.5 mg/kg once daily, per mouse, Figure 6A, 7.5 mg/kg
Method: For the polygenic model for T1D (the Jackson Laboratory), 10 cohorts of independent NOD/shiLTJ mice (each 10, equal numbers of females and males) were purchased at 7–9 weeks old. Blood glucose levels were monitored twice a week using a glucometer (Glucocard Vital) to find those mice at risk of diabetes. Diabetes was confirmed when the blood glucose levels remained at 200–250 mg/dL for 3 consecutive days. This profile of the blood glucose level is referred to as moderate hyperglycemia.
We prepared sustained time-release pearls for oral administration in the mouse models. To this end, we combined FDA-approved excipients of Eastman BioSustane SAIB NF (product code: 41271-00, sample distribution from Eastman Company, Kingsport, Tennessee, USA; provided by Phillip Cook) and Agar (Lamda Biotech, catalog C110) at the ratio of 1:1.45 (w/w). We also prepared another type of sustained time-release pearl by mixing SAIB, Agar, and L (-) malic acid (MilliporeSigma, catalog 202-601-5) at the ratio of 1:1.4:0.2 (w/w/w). A homogenous paste mixture was prepared, and pearls were formed with 50–60 mg weight and approximately 2 mm diameter by pinching off the mixture and manually rolling.
We preweighed WCDD301 into microfuge tubes and reconstituted it using deionized water. Using a 10 μL pipette tip, we placed the calculated dose of WCDD301 (at the volume range of 1–1.5 μL) within the center of pearls. WCDD301 was placed into pearls 30–45 minutes before administration. For oral administration of pearls, we designed an applicator using a disposable plastic transfer pipette and syringe plunger lubricated with olive oil. Food intake and body weight in each experimental group (diabetic WCDD301-treated, diabetic placebo-treated, and nondiabetic placebo-treated NOD mice) were monitored daily for 4 weeks. Urine glucose was measured from individually caged NOD mice (nondiabetic placebo treated n = 2, diabetic placebo treated n = 2, and diabetic WCDD301 treated n = 4, 21–23 weeks old) with metabolic cages. Urine glucose was monitored every 24 hours for 10 days by semiquantitative measurements (P-STICKS, Millpledge Veterinary).
(§1) We applied the following therapeutic regimens in the fed state for oral dosing of pearls containing WCDD301. The therapeutic regimen for diabetic NOD mice with moderate hyperglycemia (n = 6–9; 6 females/3 males) or nondiabetic ones with blood glucose levels of < 140 mg/dL (females, n = 5) was dose 7.5 mg/kg, dosage once a day, and excipient SAIB-Agar, 50–60 mg. The therapeutic regimen for STZ-induced diabetic mice with early severe hyperglycemia (n = 3, placebo group; n = 4 treatment group, females) was dose 10 mg/kg, dosage once a day, and excipient SAIB-Agar-malic acid, 50–60 mg.

nondiabetic NOD mice = assay: Blood glucose in nondiabetic NOD mice under WCDD301 dosing; format: in vivo, mouse; set-up: Blood glucose (Supplemental Figure 6B): unit: mg/dL; settings: for Blood glucose (Supplemental Figure 6B): WCDD301-treated, individual mice M1-M5
Method: as §1

[1] = Plasma stability assay, human plasma; format: in vitro ADME; settings: for Ln (% Remaining): human plasma, 37°C, Figure 5A
Method: (§2) Pooled frozen plasma of CD-1 mice (n = 20; catalog MSE00PLK2M2N, Beijing Vital River Laboratory Animal Technology) or humans (n = 6, catalog […]2P2N, Bioreclamation IVT), equal numbers of males and females, was thawed in a 37°C water bath, and residual clots were removed by centrifugation (500g for 5 minutes). Plasma (98 μL) was aliquoted in each well of 96-well reaction plates using an Apricot automation workstation. WCDD301 (100 μM) or propantheline bromide (100 μM, as a positive control) was added (2 μL/well) to sets of wells assigned to blank or time points (T0, T10, T30, T60, and T120 minutes) and incubated at 37°C. At each time point, the reaction was stopped by adding stop solution (500 μL; a mixture of 200 ng/mL of tolbutamide and labetalol in acetonitrile), mixed thoroughly, sealed, shaken (20 minutes), and centrifuged (1,750g, 4°C, 20 minutes). A total of 150 μL of the supernatant from each well of the reaction plate was transferred to its corresponding bioanalysis plate for LC-MS/MS analysis. The remaining level (%) of the WCDD301 was calculated using the following equation: remaining (%) = (PAR at each time point/PAR at T0) × 100. PAR stands for the peak area ratio of the WCDD301 versus internal standard.

[2] = Plasma stability assay, CD-1 mouse plasma; format: in vitro ADME; settings: for Ln (% Remaining): mouse plasma, 37°C, Figure 5B
Method: as §2

CC(=O)OCC(N)(COC(C)=O)COC(C)=O [WCDD301, 2-(acetoxymethyl)-2-aminopropane-1,3-diyl diacetate]
Blood glucose (Supplemental Figure 6A) (diabetic NOD mice; 48h later (after stopping dosing)): 350 mg/dL and 370 mg/dL and 330 mg/dL | Blood glucose (Supplemental Figure 6A) (diabetic NOD mice; A week after resuming dosing): 119 mg/dL and 124 mg/dL and 131 mg/dL | Blood glucose (Supplemental Figure 6A) (diabetic NOD mice; Stoping dosing): 119 mg/dL and 109 mg/dL and 124 mg/dL | Blood glucose (Supplemental Figure 6A) (diabetic NOD mice; Week 1): 184 mg/dL and 200 mg/dL and 210 mg/dL | Blood glucose (Supplemental Figure 6A) (diabetic NOD mice; Week 2): 122 mg/dL and 116 mg/dL and 109 mg/dL | Blood glucose (Supplemental Figure 6A) (diabetic NOD mice; Week 3): 132 mg/dL and 147 mg/dL and 115 mg/dL | Effect on blood glucose (diabetic NOD mice; diabetic NOD mice, moderate hyperglycemia (200–250 mg/dL), once-daily oral, SAIB-Agar): significantly reduced blood glucose levels within a week of administration; also recorded: normalized blood glucose level during an 11-week follow-up | Time to normalized blood glucose (diabetic NOD mice; diabetic NOD mice, SAIB-Agar formulation): ≤ 2 weeks | Blood glucose (diabetic NOD mice; diabetic NOD mice, Week 1, before treatment 230-251, mg/dL): 165 and 170 and 163 and 184 and 200 and 210 and 198 and 180 and 175 | Blood glucose (diabetic NOD mice; diabetic NOD mice, Week 2): 114 and 125 and 128 and 122 and 116 and 109 and 115 | Blood glucose (diabetic NOD mice; diabetic NOD mice, Week 3): 120 and 115 and 116 and 132 and 147 and 109 and 110 | Blood glucose (diabetic NOD mice; diabetic NOD mice, Week 4): 119 and 124 and 108 and 112 and 115 and 110 | Blood glucose (diabetic NOD mice; diabetic NOD mice, Week 5): 109 and 105 and 115 and 118 and 117 | Blood glucose (diabetic NOD mice; diabetic NOD mice, Week 6): 105 and 107 and 104 and 120 and 112 and 118 | Blood glucose (diabetic NOD mice; diabetic NOD mice, Week 7): 109 and 105 and 106 and 110 and 118 and 116 | Blood glucose (diabetic NOD mice; diabetic NOD mice, Week 8): 109 and 107 and 110 and 118 and 116 | Blood glucose (diabetic NOD mice; diabetic NOD mice, Week 9): 114 and 109 and 120 and 105 and 118 and 98 | Blood glucose (diabetic NOD mice; diabetic NOD mice, Week 10): 119 and 114 and 117 and 102 and 105 and 108 | Blood glucose (diabetic NOD mice; diabetic NOD mice, Week 11): 109 and 112 and 116 and 114 and 108 and 110 | Blood glucose after discontinuing for 48 hours and resuming dosing (diabetic NOD mice; treated diabetic NOD mice, Supplemental Figure 6A): resulted in hyperglycemia; also recorded: Euglycemia returned after resuming the WCDD301 dosing | Development of diabetes, prophylactic administration (nondiabetic NOD mice; NOD mice): appears to prevent the development of diabetes in NOD mice | Blood glucose (Supplemental Figure 6B) (nondiabetic NOD mice; Age (week) 10): 127 and 120 and 125 and 115 and 118 | Blood glucose (Supplemental Figure 6B) (nondiabetic NOD mice; Age (week) 19): 128 and 122 and 121 and 112 and 126 | Effect on euglycemia (nondiabetic NOD mice; nondiabetic NOD mice, Supplemental Figure 6B): nor did it affect euglycemia | half-life at 2 µM ([1]; both sexes, human, plasma): 289 min | Stability in human plasma versus mouse plasma ([1]; human higher than mouse): > 2.7 fold | Ln (% Remaining) ([1]; 10 min): -0.03128 | Ln (% Remaining) ([1]; 30 min): -0.148 | Ln (% Remaining) ([1]; 60 min): 0.05816 | Ln (% Remaining) ([1]; 120 min): 0.01827 | half-life at 2 µM ([2]; both sexes, CD-1, mouse, plasma): 105 min | Ln (% Remaining) ([2]; 10 min): -0.4 | Ln (% Remaining) ([2]; 60 min): -0.55 | Ln (% Remaining) ([2]; 120 min): -0.94
